Test results from patent US9980951B2, “Image guided therapy for cancer” (UNIVERSITY OF IOWA RESEARCH FOUNDATION, priority 2015, dated 2018).
Values joined by “and” are separate entries in the source; they are usually repeats but may differ in a detail not shown here. Identical values can stand only once.

Tests used:
A375 melanoma cells [1] = assay: Confocal microscopy, mitochondrial accumulation and colocalization with Mito Tracker Red; type: cell-based, human; conditions: A375, 1 μM, 3 h
Experimental: (§1) Confocal microscopy was used to determine that 10-TPVP preferentially accumulates in the mitochondria of melanoma cells and fluoresces upon aggregation in mitochondrial membranes of melanoma cells relative to nonmalignant cells (FIG. 1). […] NHF cells have a basal level of 10-TPVP accumulation, supporting the hypothesis that TPVP derivatives preferentially accumulate by targeting the hyperpolarized mitochondrial membrane (FIG. 1; Column II).
(§2) Experiments were performed using human metastatic BRAFV600E mutant A375 (ATCC CRL-1619) human melanoma cells, metastatic BRAFV600E mutant SK-Mel-3 (ATCC HTB-69) human melanoma cells isolated from a lymph node metastasis, and nonmetastatic normal human fibroblasts (NHFs) provided by the Coriell Institute (AG13442). All cells were cultured at 21% O2 at 37° C. in a humidified 5% CO2 incubator. Cells were detached with 0.25% trypsin-EDTA. A375 and NHF cells were cultured in high-glucose DMEM medium supplemented with 1% PenStrep and 10% FBS. SK-Mel-3 cells were cultured in high-glucose McCoy's 5A medium supplemented with 1% PenStrep and 15% FBS. All medium components were purchased from Gibco.
(§3) A375, SK-Mel-3, and NHF cells were cultured at a density of 2.5×104, 5×104, or 7.5×104, respectively, on a 4 well glass chamber slide for 24 h prior to exposure to test compounds. […]

SK-Mel-3 melanoma cells [2] = assay: as above; type: cell-based, human; conditions: SK-Mel-3, 1 μM, 3 h
Experimental: as §1, §2, §3

[3] = system: normal human fibroblasts (NHFs); assay: as above; type: cell-based; conditions: 1 μM, 3 h
Experimental: as §1, §2, §3

A375 melanoma cells [4] = assay: DHE oxidation; type: cell-based, human; conditions: A375, 10 μM, 1 h, normalized to untreated control
Description: (§4) Oxidation-sensitive dihydroethidium (DHE) was used to determine if mitochondrial-accumulated TPVP derivatives alter the oxidation state of melanoma cells (FIG. 3). DHE is a blue-fluorescent superoxide-sensitive probe that accumulates in the cytosol of healthy cells. However, upon reaction with superoxide, DHE intercalates with DNA and forms a red-fluorescent product (2-hydroxyethidium). Therefore, the shift to red fluorescence is an indicator of the change in the redox state of the cell.
as §2
(§5) A375 cells were plated in a black, clearbottom 96 well plate at a density of 1.5×10^4 cells per well. […] Cells were analyzed using a spectrophotometer at 590 nm.

SK-Mel-3 melanoma cells [5] = assay: DHE oxidation; type: cell-based, human; conditions: SK-Mel-3, 10 μM, 1 h, normalized to untreated control
Description: as §4, §2, §5

[6] = system: normal human fibroblasts (NHFs); assay: DHE oxidation; type: cell-based; conditions: 10 μM, 1 h
Description: as §4, §2, §5

A375 melanoma cells [7] = assay: Intracellular ATP measurement (CellTiter-Glo luciferase assay); type: cell-based, human; conditions: 24 h; for concentration of ATP relative to the untreated control: A375, 2.5, 5.0, or 10 μM
Experimental: (§6) TPVP derivatives embed in the mitochondria of malignant cells and increase the oxidation state relative to NHFs. Therefore, intracellular ATP levels were measured to determine the potential impact of TPVP-based treatment on cell viability (FIG. 4). This platereader-based luciferase assay is a selective method for determining the number of viable cells by quantifying the ATP-dependent oxygenation of luciferin. […] Specifically, A375 ATP levels were depleted from 1.5 mM to less than 0.8 mM after exposure to all three compounds at 10 μM.
as §2
(§7) A375 cells were plated in 60 mm culture dishes at a density of 1.5×10^5 cells per dish. SK-Mel-3 and NHF cells were plated in 60 mm culture dishes at a density of 2.5×10^5 cells per dish. After 48 h, cells were exposed to 2.5, 5.0 or 10 μM of PTVP, DPDVP, or 18:2-TPVP for 24 h and analyzed for intracellular ATP content using the CellTiter-Glo Luminescent Cell Viability Assay (Promega).

A375 melanoma cells [8] = assay: Clonogenic survival assay; type: cell-based, human; conditions: 24 h; for clonogenic survival relative to the untreated control: A375, 5.0, 7.5, and 10 μM
Experimental: (§8) To further test the hypothesis that TPVP derivatives can be designed to decrease viability in melanoma cells relative to normal cells, clonogenic survival assays were performed (FIG. 6). The clonogenic cell survival assay is used often as a measure of the ability of cells to proliferate indefinitely. In these studies, cells were exposed to varying concentrations of TPVP derivatives for 24 h. After exposure to cytotoxic compounds, cells were collected, counted, and reseeded at a low density. The cells then undergo a series of doublings, forming cell colonies. These colonies were then counted, and the resulting cell survival curve reports the dose of the agent used to produce an insult and the fraction of cells retaining their ability to reproduce. […] Specifically, 18:2-TPVP decreases clonogenic survival to <50% at 5.0 μM for both A375 and SK-Mel-3 cells and <20% at 7.5 μM.
as §2
(§9) A375 cells were plated in 60 mm culture dishes at a density of 1.5×10^5 cells per dish. SKMel-3 and NHF cells were plated in 60 mm culture dishes at a density of 2.5×10^5 cells per dish. After 48 h, cells were treated with 1.0, 2.5, 5.0, 7.5, or 10 μM of PTVP, DPDVP, or 18:2-TPVP for 24 h. After the exposure period, cells were collected, counted, and plated at either 500 (A375 and NHF) or 3000 (SK-Mel-3) cells per 60 mm dish. Following a 2 week incubation, medium was removed and colonies fixed with ethanol and stained with Coommassie Brilliant Blue. Data were normalized to each untreated control, and the surviving fraction was reported.

SK-Mel-3 melanoma cells [9] = assay: Clonogenic survival assay; type: cell-based, human; conditions: 24 h; for clonogenic survival relative to the untreated control: SK-Mel-3, 5.0, 7.5, and 10 μM
Experimental: as §8, §2, §9

A375 melanoma cells [10] = assay: JC-1 mitochondrial membrane potential assay; type: cell-based, human; conditions: A375, 10 μM, 1 h
Description: (§10) JC-1 mitochondrial membrane potential assays were used to determine that TPVP derivatives are designed to accumulate in melanoma cell mitochondria and disrupt the membrane potential of melanoma cells relative to nonmalignant cells (FIG. 2).
(§11) Mitochondrial membrane potential is an important parameter of mitochondrial function. In healthy cells (with high mitochondrial potential), JC-1 spontaneously forms complexes known as J-aggregates that fluoresce in the red region. In unhealthy cells with a low mitochondria membrane potential or cells whose membrane integrity is disrupted with uncoupling agents (e.g., FCCP), JC-1 remains in the monomeric form, with fluorescence in the green region. Therefore, the ratio of Jaggregate to monomer fluorescence is an indicator of mitochondrial membrane potential and cellular health.
as §2
(§12) A375 cells were plated in a black, clear-bottom 96 well plate at a density of 1.5×10^4 cells per well. SK-Mel-3 and NHF cells were plated in a black, clear-bottom 96 well plate at a density of 2.5×10^4 cells […]. After 24 h, cells were treated with 2.5, 5.0, or 10 μM 18:2-TPVP or DPDVP for 1 h. Cells were then washed and incubated with 2.0 μM JC-1 (Cayman) in PBS containing 5 mM pyruvate (Gibco) for 1 h. Control dishes were treated with 1.0 μM FCCP (Sigma-Alrich) 30 min prior to measurement. Cells were washed and analyzed in PBS using a spectrophotometer at 530 and 590 nm.

SK-Mel-3 melanoma cells [11] = assay: JC-1 mitochondrial membrane potential assay; type: cell-based, human; conditions: SK-Mel-3, 10 μM, 1 h
Description: as §10, §11, §2, §12

[12] = system: normal human fibroblasts (NHFs); assay: JC-1 mitochondrial membrane potential assay; type: cell-based; conditions: 10 μM, 1 h
Description: as §10, §11
Experiments were performed using human metastatic BRAFV600E mutant A375 (ATCC CRL-1619) human melanoma cells, metastatic BRAFV600E mutant SK-Mel-3 (ATCC HTB-69) human melanoma cells isolated from a lymph node metastasis, and nonmetastatic normal human fibroblasts (NHFs) provided by the Coriell Institute (AG13442). All cells were cultured at 21% O2 at 37° C. in a humidified 5% CO2 incubator. […]
A375 cells were plated in a black, clear-bottom 96 well plate at a density of 1.5×10^4 cells per well. […] Cells were washed and analyzed in PBS using a spectrophotometer at 530 and 590 nm.

SK-Mel-3 melanoma cells [13] = assay: Intracellular ATP measurement (CellTiter-Glo luciferase assay); type: cell-based, human; conditions: SK-Mel-3, 5.0 μM and 10 μM, 24 h
Experimental: as §6, §2, §7

[14] = system: normal human fibroblasts (NHFs); assay: Clonogenic survival assay; type: cell-based; conditions: NHF, 5.0 μM, 24 h
Experimental: as §8, with “μM. […]” for “μM.”
A375 cells were plated in 60 mm culture dishes at a density of 1.5×10^5 cells per dish. […] After the exposure period, cells were collected, counted, and plated at either 500 (A375 and NHF) or 3000 (SK-Mel-3) cells per 60 mm dish. […]

CCCCCCCCCC[n+]1ccc(C(=C(c2ccccc2)c2ccccc2)c2ccccc2)cc1.[Br-] [Compound 10-TPVP, 1-Decyl-4-(1,2,2-triphenylvinyl)pyridin-1-ium Bromide]
accumulation in cells by confocal microscopy (A375 melanoma cells [1]): easily observable | accumulation in cells by confocal microscopy (SK-Mel-3 melanoma cells [2]): easily observable | accumulation in mitochondria by confocal microscopy [3]: does not significantly accumulate | increase of DHE oxidation (A375 melanoma cells [4]): 3 fold | increase of DHE oxidation (SK-Mel-3 melanoma cells [5]): 2 fold | DHE fluorescence intensity [6]: does not significantly alter

CCCCCCCCCC[n+]1ccc(C(=C(c2cc[n+](CCCCCCCCCC)cc2)c2cc[n+](CCCCCCCCCC)cc2)c2ccccc2)cc1.[Br-].[Br-].[Br-] [PTVP, 4,4′,4″-(2-Phenylethene-1,1,2-triyl)tris(1-decylpyridin-1-ium) Bromide]
concentration of ATP relative to the untreated control (A375 melanoma cells [7]): significantly decreases | clonogenic survival relative to the untreated control (A375 melanoma cells [8]): significantly decrease | clonogenic survival relative to the untreated control (SK-Mel-3 melanoma cells [9]): significantly decrease

CCCCC/C=C\C/C=C\CCCCCCCC[n+]1ccc(C(=C(c2ccccc2)c2ccccc2)c2ccccc2)cc1.[Br-] [18:2-TPVP, 1-((9Z,12Z)-Octadeca-9,12-dien-1-yl)-4-(1,2,2-triphenylvinyl)pyridin-1-ium Bromide]
decrease of JC-1 aggregate to monomer fluorescence ratio (A375 melanoma cells [10]): 55% | decrease of JC-1 aggregate to monomer fluorescence ratio (SK-Mel-3 melanoma cells [11]): 40% | decrease of JC-1 aggregate to monomer fluorescence ratio [12]: 20% | concentration of ATP relative to the untreated control (A375 melanoma cells [7]): significantly decreases | intracellular ATP relative to NHFs (A375 melanoma cells [7]; A375, all concentrations (1, 5, or 10 μM)): significantly decreases | intracellular ATP relative to NHFs (SK-Mel-3 melanoma cells [13]): significantly decreases | clonogenic survival (A375 melanoma cells [8]; A375, 5.0 μM): < 50% and 40% | clonogenic survival (A375 melanoma cells [8]; A375, 7.5 μM): < 20% | clonogenic survival relative to NHFs (A375 melanoma cells [8]; A375, 2.5, 5.0, 7.5, and 10 μM): significant decrease | clonogenic survival relative to the untreated control (A375 melanoma cells [8]): significantly decrease | clonogenic survival (SK-Mel-3 melanoma cells [9]; SK-Mel-3, 5.0 μM): < 50% and 30% | clonogenic survival (SK-Mel-3 melanoma cells [9]; SK-Mel-3, 7.5 μM): < 20% | clonogenic survival relative to NHFs (SK-Mel-3 melanoma cells [9]; SK-Mel-3, 2.5, 5.0, 7.5, and 10 μM): significant decrease | clonogenic survival relative to the untreated control (SK-Mel-3 melanoma cells [9]): significantly decrease | clonogenic survival [14]: 75%

CCCCCCCCCC[n+]1ccc(C(=C(c2ccccc2)c2ccccc2)c2cc[n+](CCCCCCCCCC)cc2)cc1.[Br-].[Br-] [DPDVP, 4,4′-(2,2-Diphenylethene-1,1-diyl)bis(1-decylpyridin-1-ium) Bromide]
decrease of JC-1 aggregate to monomer fluorescence ratio (A375 melanoma cells [10]): 50% | decrease of JC-1 aggregate to monomer fluorescence ratio (SK-Mel-3 melanoma cells [11]): 30% | decrease of JC-1 aggregate to monomer fluorescence ratio [12]: 10% | concentration of ATP relative to the untreated control (A375 melanoma cells [7]): significantly decreases | clonogenic survival relative to the untreated control (A375 melanoma cells [8]): significantly decrease | clonogenic survival relative to the untreated control (SK-Mel-3 melanoma cells [9]): significantly decrease
